Assay [1] deals with T1, Potassium voltage-gated channel subfamily A member 3 (Homo sapiens, UniProt P22001). The arrangement: species or system Blood.
For assay [2], the target named is T1, Potassium voltage-gated channel subfamily A member 3. The format is cell-based, CHO-K1.
Assay [3] has the same target. Briefly: cell-based. The arrangement: species or system Blood.

pIC50: −log10 of the molar value. Bridge positions count the residues as written; N and C are the ends. Peptide text beside a SMILES is read from it.

T1 sequence (P22001 whole entry): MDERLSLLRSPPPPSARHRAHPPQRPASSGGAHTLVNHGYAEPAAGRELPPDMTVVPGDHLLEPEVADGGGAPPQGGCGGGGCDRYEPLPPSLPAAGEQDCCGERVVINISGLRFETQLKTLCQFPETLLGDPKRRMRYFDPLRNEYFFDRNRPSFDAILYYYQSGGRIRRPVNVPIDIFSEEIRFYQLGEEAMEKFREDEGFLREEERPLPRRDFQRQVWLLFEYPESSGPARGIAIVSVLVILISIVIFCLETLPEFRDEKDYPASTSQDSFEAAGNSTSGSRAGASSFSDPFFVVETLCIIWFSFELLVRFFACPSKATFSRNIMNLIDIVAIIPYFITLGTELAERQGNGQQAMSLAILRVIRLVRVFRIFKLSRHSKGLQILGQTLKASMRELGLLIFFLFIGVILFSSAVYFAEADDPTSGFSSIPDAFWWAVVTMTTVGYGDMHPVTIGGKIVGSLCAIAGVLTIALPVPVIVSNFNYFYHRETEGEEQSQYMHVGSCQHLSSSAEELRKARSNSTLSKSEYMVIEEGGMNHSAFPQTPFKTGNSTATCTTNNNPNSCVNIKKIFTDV

In the case of `CC[C@H](C)[C@@H]1NC(=O)[C@@H](NC(=O)[C@H](CO)NC(=O)[C@@H](N)CCCNC(=N)N)CSSC[C@@H](C(=O)O)NC(=O)[C@H]([C@@H](C)O)NC(=O)CNC(=O)[C@@H]2CSSC[C@@H]3NC(=O)[C@H](CCCCN)NC(=O)[C@H](Cc4ccccc4)NC(=O)[C@H](C)NC(=O)[C@H]([C@@H](C)O)NC(=O)[C@H](CSSC[C@H](NC(=O)[C@H](Cc4ccccc4)NC(=O)[C@H](CO)NC(=O)[C@H](CC(C)C)NC(=O)[C@H](CCCNC(=N)N)NC(=O)[C@H](Cc4ccc(O)cc4)NC(=O)[C@H](CCCCN)NC(=O)[C@H](CCCCN)NC(=O)[C@H](CO)NC(=O)[C@H](Cc4cnc[nH]4)NC(=O)[C@H](CCCCN)NC3=O)C(=O)N[C@@H](CCCNC(=N)N)C(=O)N[C@@H](CCCCN)C(=O)N[C@@H]([C@@H](C)O)C(=O)N2)NC(=O)[C@H](CCCNC(=N)N)NC(=O)[C@H](CO)NC(=O)[C@H](CCCCN)NC(=O)[C@@H]2CCCN2C(=O)[C@H]([C@@H](C)CC)NC(=O)[C@H]([C@@H](C)O)NC(=O)[C@H](CC(=O)O)NC1=O`, the negative-log IC50 (pIC50) in assay [1] is 8.25; in assay [2] (cho-k1), 9.89; in assay [3], 9.60.
On to `CC[C@H](C)[C@@H]1NC(=O)[C@@H](NC(=O)[C@H](CO)NC(=O)[C@@H](N)CCCNC(=N)N)CSSC[C@@H](C(=O)O)NC(=O)[C@H]([C@@H](C)O)NC(=O)CNC(=O)[C@@H]2CSSC[C@@H]3NC(=O)[C@H](CCC(N)=O)NC(=O)[C@H](CCC(=O)O)NC(=O)[C@H](C)NC(=O)[C@H]([C@@H](C)O)NC(=O)[C@H](CSSC[C@H](NC(=O)[C@H](Cc4ccccc4)NC(=O)[C@H](CO)NC(=O)[C@H](CC(C)C)NC(=O)[C@H](CCCNC(=N)N)NC(=O)[C@H](Cc4ccc(O)cc4)NC(=O)[C@H](CCCCN)NC(=O)[C@H](CCSC)NC(=O)[C@H](CO)NC(=O)[C@H](C)NC(=O)[C@H](CCCCN)NC3=O)C(=O)N[C@@H](CCCNC(=N)N)C(=O)N[C@@H](CCCCN)C(=O)N[C@@H]([C@@H](C)O)C(=O)N2)NC(=O)[C@H](CCCNC(=N)N)NC(=O)[C@H](CO)NC(=O)[C@H](CCCCN)NC(=O)[C@@H]2CCCN2C(=O)[C@H]([C@@H](C)CC)NC(=O)[C@H]([C@@H](C)O)NC(=O)[C@H](CC(=O)O)NC1=O` (H-RSCIDTIPKSRCTAEQCKASMKYRLSFCRKTCGTC-OH; disulfide 3-35, 12-28, 17-32), for which the negative logarithm of the IC50 (pIC50) in assay [1] was 9.24; in assay [2], 9.57; in assay [3] it was 9.51.
On the same counts, the results for `CC[C@H](C)[C@@H]1NC(=O)[C@@H](NC(=O)[C@H](CO)NC(=O)[C@@H](N)CCCNC(=N)N)CSSC[C@@H](C(=O)O)NC(=O)[C@H]([C@@H](C)O)NC(=O)CNC(=O)[C@@H]2CSSC[C@@H]3NC(=O)[C@H](CCC(N)=O)NC(=O)[C@H](CCCCN)NC(=O)[C@H](C)NC(=O)[C@H]([C@@H](C)O)NC(=O)[C@H](CSSC[C@H](NC(=O)[C@H](Cc4ccccc4)NC(=O)[C@H](CO)NC(=O)[C@H](CC(C)C)NC(=O)[C@H](CCCNC(=N)N)NC(=O)[C@H](Cc4ccc(O)cc4)NC(=O)[C@H](CCCCN)NC(=O)[C@H](CCSC)NC(=O)[C@H](CO)NC(=O)[C@H](C)NC(=O)[C@H](CCCCN)NC3=O)C(=O)N[C@@H](CCCNC(=N)N)C(=O)N[C@@H](CCCCN)C(=O)N[C@@H]([C@@H](C)O)C(=O)N2)NC(=O)[C@H](CCCNC(=N)N)NC(=O)[C@H](CO)NC(=O)[C@H](CCCCN)NC(=O)[C@@H]2CCCN2C(=O)[C@H]([C@@H](C)CC)NC(=O)[C@H]([C@@H](C)O)NC(=O)[C@H](CC(=O)O)NC1=O` (H-RSCIDTIPKSRCTAKQCKASMKYRLSFCRKTCGTC-OH; disulfide 3-35, 12-28, 17-32) are 9.00, 9.53 and 9.33.
